Data as given in ChEMBL document CHEMBL4842322, “A naphthalimide-polyamine conjugate preferentially accumulates in hepatic carcinoma metastases as a lysosome-targeted antimetastatic agent” (Eur J Med Chem, 2021).
Calls of active or inactive are those of the source. The rule behind the calls is not given here.

What was measured:
Huh-7 [1] = test: Cytotoxicity against human Huh-7 cells assessed as reduction in cell viability at 5 to 15 uM incubated for 24 hrs in presence of polyamine transporter inhibitor, Spd by MTT assay; type: functional, cell-based; conditions: dose 5-15 µM
A549 [2] = test: Inhibition of tumor metastasis in cisplatin-resistant human A549 cells assessed as downregulation of HMGB1 protein expression level measured after 24 hrs by western blot analysis; type: functional, cell-based; conditions: dose 5-15 µM
[3] = Ratio of cisplatin IC50 to test compound IC50 for human MCF7 cells by MTT assay; type: functional
HepG2 [4] = test: Cytotoxicity against human HepG2 cells assessed as reduction in cell viability at 5 to 15 uM incubated for 24 hrs in presence of polyamine transporter inhibitor, Spd by MTT assay; type: functional, cell-based; conditions: dose 5-15 µM
[5] = Upregulation of PAO expression in human Huh-7 cells at 10 uM measured after 24 hrs relative to control; type: functional
A549 [6] = test: Cytotoxicity against human A549 cells assessed as inhibition of cell growth incubated for 48 hrs by MTT assay; type: functional, cell-based; conditions: A549, 48 h
HepG2 [7] = test: Downregulation of Spermine contents in human HepG2 cells measured after 24 hrs by HPLC analysis; type: functional, cell-based
[8] = Toxicity in BALB/c mouse xenografted with human HCC cells assessed as body weight at 1 to 5 mg/kg, iv administered once daily for 7 days; type: organism-based; conditions: in vivo, 168 h, dose 1-5 mg/kg, time 7 day
Huh-7 [9] = test: Downregulation of Putrescine contents in human Huh-7 cells measured after 24 hrs by HPLC analysis; type: functional, cell-based
HepG2 [10] = test: Inhibition of tumor metastasis in human HepG2 cells assessed as upregulation of p53 gene expression level at 5 to 15 uM measured after 24 hrs by qRT-PCR analysis; type: functional, cell-based; conditions: dose 5-15 µM
HepG2 [11] = test: Induction of apoptosis in human HepG2 cells assessed as induction of DNA damage by measuring upregulation of gammaH2AX expression at 5 to 15 uM; type: functional, cell-based; conditions: dose 5-15 µM
A549 [12] = test: Inhibition of tumor metastasis in cisplatin-resistant human A549 cells assessed as upregulation of LC3-I protein expression level at 5 to 15 uM measured after 24 hrs by western blot analysis; type: functional, cell-based; conditions: dose 5-15 µM
[13] = Ratio of amonafide IC50 to test compound IC50 for human MCF7 cells by MTT assay; type: functional
Huh-7 [14] = test: Downregulation of Spermine contents in human Huh-7 cells measured after 24 hrs by HPLC analysis; type: functional, cell-based
Huh-7 [15] = test: Potency index, ratio of amonafide IC50 to test compound IC50 for human Huh-7 cells by MTT assay; type: functional
HepG2 [16] = test: Potency index, ratio of amonafide IC50 to test compound IC50 for human HepG2 cells by MTT assay; type: functional
[17] = Ratio of amonafide IC50 to test compound IC50 for cisplatin-resistant human A549 cells by MTT assay; type: functional
[18] = Resistance factor, ratio of IC50 for cisplatin-resistant human A549 cells to IC50 for human A549 cells; type: functional
L02 = test: Cytotoxicity against human HL7702 cells assessed as inhibition of cell growth measured after 24 hrs by MTT assay; type: cell-based; conditions: L02, 24 h
[19] = Selectivity index, ratio of IC50 for human HL7702 cells to IC50 for human HepG2 cells; type: toxicity; conditions: HL7702 cells and HepG2 cells, read-out: Ratio IC50
[20] = Antimetastatic activity against human HCC cells xenografted in BALB/c mouse assessed as reduction lung metastatic nodules at 5 mg/kg, iv administered once every 2 days for 14 days; type: functional; conditions: 336 h, time 14 day
[21] = Drug uptake in golgi apparatus of human HepG2 cells at 10 uM incubated for 8 hrs by Golgi-tracker dye based laser confocal microscopy; type: ADME, subcellular, Golgi body; conditions: hepg2, 8 h
HepG2 [22] = test: Inhibition of tumor metastasis in human HepG2 cells assessed as upregulation of SSAT protein expression level at 5 to 15 uM measured after 24 hrs by western blot analysis; type: functional, cell-based; conditions: dose 5-15 µM
Huh-7 [23] = test: Downregulation of Spermidine contents in human Huh-7 cells measured after 24 hrs by HPLC analysis; type: functional, cell-based
[24] = Drug uptake in endoplasmic reticulum of human HepG2 cells at 10 uM incubated for 8 hrs by ER-tarcker dye based laser confocal microscopy; type: ADME, subcellular; conditions: hepg2, 8 h
MCF7 = test: Cytotoxicity against human MCF7 cells assessed as inhibition of cell growth incubated for 48 hrs by MTT assay; type: functional, cell-based; conditions: MCF7, 48 h
[25] = Antitumor activity against human HCC cells xenografted in BALB/c mouse assessed as inhibition of tumor weight at 3 mg/kg, iv administered once daily for 7 days; type: functional; conditions: 168 h, time 7 day
HepG2 [26] = test: Inhibition of tumor metastasis in human HepG2 cells assessed as upregulation of LC3-I gene expression level at 5 to 15 uM measured after 24 hrs by qRT-PCR analysis; type: functional, cell-based; conditions: dose 5-15 µM
[27] = Antitumor activity against human HCC cells xenografted in BALB/c mouse assessed as tumor volume administered iv once daily for 7 days measured on day 7 (reference value: 910 mm3); type: functional; conditions: time 7 day
[28] = Ratio of cisplatin IC50 to test compound IC50 for human A549 cells by MTT assay; type: functional
[29] = Antitumor activity against human HCC cells xenografted in BALB/c mouse assessed as inhibition of tumor weight at 1 mg/kg, iv administered once daily for 7 days; type: functional; conditions: 168 h, time 7 day
[30] = Toxicity in BALB/c mouse xenografted with human HCC cells assessed as effect on heart weight index at 1 to 5 mg/kg, iv administered once daily for 7 days; type: organism-based; conditions: in vivo, 168 h, dose 1-5 mg/kg, time 7 day
HepG2 [31] = test: Inhibition of tumor metastasis in human HepG2 cells assessed as upregulation of p62 gene expression level at 5 to 15 uM measured after 24 hrs by qRT-PCR analysis; type: functional, cell-based; conditions: dose 5-15 µM

NCCCCNCCCCNCCCCN1C(=O)c2cccc3cc(NC(=O)CN)cc(c23)C1=O
Activity (Huh-7 [1]): inactive | inhibition (A549 [2]): Dose-Dependent Effect | Ratio IC50 [3]: 0.59 | Activity (HepG2 [4]): inactive | fold change (FC) [5]: 1.5 | IC50 (A549 [6]): 20.3 µM | inhibition (HepG2 [7]): Active | Activity [8]: Non-Toxic | inhibition (Huh-7 [9]): Active | inhibition (HepG2 [10]): Active | Activity (HepG2 [11]): Active | inhibition (A549 [12]): Active | Ratio IC50 [13]: 0.67 | inhibition (Huh-7 [14]): Active | Ratio IC50 (Huh-7 [15]): 8.69 | Ratio IC50 (HepG2 [16]): 7.1 | Ratio IC50 [17]: 0.62 | Ratio IC50 [18]: 0.76 | IC50 (L02): 6.3 µM | selectivity ratio [19]: 4.77 | inhibition in vivo at 5 mg/kg [20]: 75% | Drug uptake [21]: Not Active | inhibition (HepG2 [22]): Active | inhibition (Huh-7 [23]): Active | Drug uptake [24]: Not Active | IC50 (MCF7): 16.2 µM | inhibition in vivo at 3 mg/kg [25]: 70.1% | inhibition (HepG2 [26]): Active | Activity [27]: 400 mm3 | Ratio IC50 [28]: 0.5 | inhibition in vivo at 1 mg/kg [29]: 58.5% | Activity [30]: Non-Toxic | inhibition (HepG2 [31]): Active
